Assay results taken from BindingDB's records for doi:10.1021/jm401509e (Pfizer, 2014).

How the values were obtained:
[1] = Antagonist activity at CRTh2 in human peripheral blood assessed as inhibition of PGD2-induced eosinophil shape change at room temperature by flow cytometry
[2] = Inhibition of CRTH2 receptor-mediated chemotaxis in human basophils

IC50 [1] [nM]	IC50 [2] [nM]	Structure (SMILES)
18		Cc1c(-c2cn(CC(C)(C)C)c(=O)c3ccccc23)c2cc(F)ccc2n1CC(=O)O
3		Cc1c(-c2cn(CCCC(F)(F)F)c(=O)c3ccccc23)c2cc(F)ccc2n1CC(=O)O
19		Cc1c(-c2cn(CC(F)(F)F)c(=O)c3ccccc23)c2cc(F)ccc2n1CC(=O)O
8	1.2	Cc1c(-c2cn(C(C)C)c(=O)c3ccccc23)c2cc(F)ccc2n1CC(=O)O
